Where a name gives a salt, the structure may show the parent alone. Where no end group is shown, it is not given here. [ ]: non-standard residue; d: D form. Sta = CC(C)C[C@H](N)[C@@H](O)CC(=O)O; Imid = not defined here; Dap = NC[C@H](N)C(=O)O
Tested on: PAR-2
Assay: Inhibition of PAR-2 activating peptide (AP2) calcium signaling in cells pretreated with antagonist
Type: cell-based, human
Set-up: key to PAR-2 AP2 Signaling Treated/Control (T/C) / PAR-2 AP2 Signaling Treated/Control: AUC of calcium mobilization, treated ÷ control wells
Conditions: mimetic antagonists; AUC of calcium mobilization treated/control; initially screened at 1 mM compound
Procedure: In order to assess the potential of peptides and molecules selected above to block PAR-2 signaling, cells were pretreated with potential antagonist peptides for a predetermined amount of time and were subsequently treated with various GPCR agonists. Confluent Lewis lung carcinoma (LLC) cells were loaded for 30-60 minutes with the fluorescent dye Fluo-4. Final concentration 4 uM Fluo-4, 0.02% pluronic acid in physiological buffer. Cells were then washed with assay buffer, (HBSS containing 1 mM CaCl2, 1 mM MgSO4, and 2.5 mM probenecid). Cells were stimulated with various doses of PAR-2 activating peptide, PAR-1 activating peptide or ATP. Fluorescence was monitored using a Wallac 1470 fluorescent plate reader. (See Al-ani et. al Journal of Pharmacology and Experimental Therapeutics 290:2, 753-760). Additional compound screening was performed using U87-MG human glioma cells. In this assay cells were labeled with FLIPR Calcium 3 dye (Component A), which was dissolved in 10 mls of Assay Buffer without Probenecid. Loading buffer was prepared by diluting Component A with an additional 90 mls of Assay Buffer without Probenecid, giving a total volume of a 100 ml. For plate loading, 11 mls of FLIPR Calcium 3 dye (Component A) is placed into a 15 ml conical tube+110 μl of 250 mM Probenecid, at a final in-well working volume of 2.5 mM. Finally, 50 μl of Calcium 3 dye was added wells containing 100 μl media, and incubated 1 hr, 37° C., 5% CO2. Calcium signaling was then measured using a Flexstation II (Molecular Devices) following manufacturer's instructions.
Potential antagonist compounds were initially screened at 1 mM compound concentration. Those compounds with activity were then subjected to additional confirmatory testing. Activity is reported as treated/controlled (T/C) where the area under the curve (AUC) of calcium mobilization plots in treated wells is divided by the AUC of calcium mobilization plots in control wells to generate a measure of inhibition.

Row | Compound | PAR-2 AP2 Signaling Treated/Control
1 | O=C(Cc1ccccc1)N1CCN(C(=O)Cc2cnc[nH]2)CC1 [ENMD-1076, 1-(4-(2-(1H-imidazol-4-yl)acetyl)piperazin-1-yl)-1-benzyl-amide] | 0.14
2 | NCCCCCCNc1nc2ccc(C(=O)NCC3CCCCC3)cc2[nH]1 [ENMD-1553, 2-(6-Amino-hexylamino)-3H-benzoimidazole-5-carboxylic acid cyclohexylmethyl-amide] | 0.81
3 | O=C(Cc1cccnc1)N1CCN(C(=O)CC2CCCCC2)CC1 [ENMD-1074, 1-(4-(2-cyclohexylacetyl)piperazin-1-yl)-2-(pyridin-3-yl)-acetaldehyde] | 0.35
4 | CC(C)CC(=O)Nc1cc(C(=O)NCCCCCCN)n[nH]1 [ENMD-1550, 5-(3-methyl-butyrylamino)-1H-pyrazole-3-carboxylic acid (6-amino-hexyl)-amide] | 0.63
5 | NCCCCCC(=O)N1CC(NC(=O)CC2CCCCC2)C1 [ENMD-1514, 2-cyclohexylacetamid-N-(6-amino-1-hexanoylazetidin-3-yl)] | 0.53
6 | Cl.NC1CCC(C(=O)Nc2ccc(NC(=O)CC3CCCCC3)cc2)C1 (stereo in doubt) [ENMD-1768, (1R,3S)-N-(4-(2-cyclohexylacetamido)phenyl)-3-aminocyclopentanecarboxamide hydrochloride] | 0.10
7 | CC(C)CC(=O)Nc1nc(CC(=O)NCCCCCN)cs1 [ENMD-1549, N-{4-[(5-Amino-pentylcarbamoyl)-methyl]-thiazol-2-yl}-3-methyl-butyramide] | 0.26
8 | NCCCCNc1ccc(C(=O)NCC2CCCCC2)cn1 [ENMD-1543] | 0.55
9 | CC(C)CNC(=O)c1cc(NC(=O)CCCCCN)[nH]n1 [ENMD-1533, 5-(6-Amino-hexanoylamino)-1H-pyrazole-3-carboxylic acid isobutyl-amide] | 0.68
10 | NCCCCCCNC(=O)C1CN(C(=O)CC2CCCCC2)CCO1 (stereo not shown) [ENMD-1521, 4-(2-Cyclohexyl-acetyl)-morpholine-2-carboxylic acid (6-amino-hexyl)-amide] | 1.01
11 | CC(C)CC(=O)N1CCN(C(=O)Cc2ccc(N)cc2)CC1 [ENMD-1065, N^1-3-methylbutyryl-N^4-[2-(4-aminophenyl)-ethanoyl]-piperazine] | 0.34
12 | N=C(N)NCCCCCC(=O)N1CCN(C(=O)CC2CCCCC2)CC1 [ENMD-1072, 4-(1-cyclohexylacetyl)piperazin-1-(5′-carbamoyl-pentylguanidine)] | 0.56
13 | NCCCCNC(=O)c1ccc(OCC2CCCCC2)cc1 [ENMD-1406, N-(4-aminobutyl)-4-(cyclohexylmethoxy)-benzamide] | 0.24
14 | CC(C)CNC(=O)c1ccc(OCCCN)cc1 [ENMD-1410, 4-(3-aminopropoxy)-N-isobutyl-benzamide] | 0.55
15 | CC(C)CNc1nc2ccc(C(=O)NCCCCCCN)cc2[nH]1 [ENMD-1525, 2-Isobutylamino-3H-benzoimidazole-5-carboxylic acid (6-amino-hexyl)-amide] | 0.52
16 | Nc1ccc(CC(=O)N2CCN(C(=O)CC3CCCCC3)CC2)cc1 [ENMD-1070, N^1-2-cyclohexylethanoyl-N^4-[2-(4-aminophenyl)-ethanoyl]-piperazine] | 0.05
17 | CC(C)CC(=O)N1CCN(C(=O)CCCCCNC(=N)N)CC1 [ENMD-1067, 4-(3-methylbutanoyl)piperazin-1-(5′-carbamoyl-pentylguanidine)] | 0.77
18 | CC(C)CNC(=O)c1ccc(-c2ccc(NC(=O)CCCCCN(C)C)cc2)cc1 [ENMD-1529, 4′-(6-Dimethylamino-hexanoylamino)-biphenyl-4-carboxylic acid isobutyl-amide] | 0.35
19 | NCCCCCNc1cnc(C(=O)NCC2CCCCC2)cn1 [ENMD-1775, cyclohexylmethyl-6-(5-aminopentaneamino)-2-pyrazine amide] | 0.90

Row | Compound | PAR-2 AP2 Signaling Treated/Control
20 | NCCCCNC(=O)c1ccc(CCC2CCCCC2)cc1 [ENMD-1509, N-(4-aminobutyl)-4-(2-cyclohexylethyl)-benzamide] | 0.71
21 | Cl.NCCCOc1ccc(OCC2CCCCC2)cc1 [ENMD-1567, 3-(4-(cyclohexylmethoxy)phenoxy)propan-1-amine hydrochloride] | 0.08
22 | NCCCCCCNC(=O)c1cc(CNC(=O)CC2CCCCC2)on1 [ENMD-1557, 5-[(2-Cyclohexyl-acetylamino)-methyl]-isoxazole-3-carboxylic acid (6-amino-hexyl)-amide] | 0.52
23 | CC(C)CC(=O)N1CCN(C(=O)Cc2cnc[nH]2)CC1 [ENMD-1066, 1-(4-(2-(1H-imidazol-4-yl)acetyl)piperazin 1-yl)-3-methylbutan-1-amide hydrochloride] | 0.20
24 | CC(C)CC(=O)N1CCOC(C(=O)NCCCCCCN)C1 (stereo not shown) [ENMD-1522, 4-(3-Methyl-butyryl)-morpholine-2-carboxylic acid (6-amino-hexyl)-amide] | 1.00
25 | O=C(Cc1ccncc1)N1CCN(C(=O)CC2CCCCC2)CC1 [ENMD-1079, 1-(4-(2-cyclohexylacetyl)piperazin-1-yl)-2-(pyridin-4-yl)-acetaldehyde] | 0.90
26 | CC(C)CNC(=O)c1ccc(NCCCCN)nc1 [ENMD-1562, 6-(4-aminobutylamine)-3-(isobutyl)-nicotinoyl amide] | 0.57
27 | O=C(Cc1cn(CCCCN2C(=O)c3ccccc3C2=O)cn1)NC1CCCCC1 [ENMD-1535, N-cyclohexyl-2-(1-(4-(1,3-dioxoisoindolin-2-yl)butyl)-1H-imidazol-4-yl)acetamide] | 0.46
28 | CC(C)CCc1ccc(C(=O)NCCCCN)cc1 [ENMD-1552, N-(4-aminobutyl)-4-isopentyl-benzamide] | 0.10
29 | NCCCCCC(=O)NC1CN(C(=O)CC2CCCCC2)C1 [ENMD-1513, N-[1-(2-cyclohexylacetyl)azetidin-3-yl]-6-aminohexanamide] | 0.97
30 | NCCCCCCn1cc(CCC2CCCCC2)nn1 [ENMD-1520, 1-(6-aminohexyl)-4-(2-cyclohexylethyl)-1,2,3-triazole] | 0.36
31 | CC(C)CCC(=O)N1CCN(C(=O)CCCCCN)CC1 [ENMD-1041, N^1-[4′-methylpentanoyl]-N^4-[6′-aminohexanoyl]-piperazine] | 0.17
32 | CCC(=O)N1CCN(C(=O)CCCCCN)CC1 [ENMD-1037, N′-propanoyl-N-4-[6′-aminohexanoyl]-piperazine] | 0.55
33 | CC(C)CC(=O)NCc1cc(C(=O)NCCCCCCN)no1 [ENMD-1556, 5-[(3-methyl-butyrylamino)-methyl]-isoxazole-3-carboxylic acid (6-amino-hexyl)-amide] | 0.57
34 | NCCCCCCNC(=O)c1ccc2nc(NCC3CCCCC3)[nH]c2c1 [ENMD-1526, 2-(Cyclohexylmethyl-amino)-3H-benzoimidazole-5-carboxylic acid (6-amino-hexyl)-amide] | 0.64
35 | NCCCCCC(=O)N1CCN(C(=O)CC2CCCCC2)CC1 [ENMD-1073, N′-(2-cyclohexylethanoyl)-N^4-(6-aminohexanoyl)piperazine] | 0.56
36 | NCCCCNC(=O)c1ccc(NCC2CCCCC2)nc1 [ENMD-1538] | 0.48
37 | NCCCCCC(=O)N1CCN(C(=O)Cc2ccccc2)CC1 [ENMD-1078, N^1-(2-phenylethanoyl)-N^4-(6-aminohexanoyl)piperazine] | 0.42

Same assay, conditions: peptides; AUC of calcium mobilization treated/control; initially screened at 1 mM compound

Row | Compound | PAR-2 AP2 Signaling Treated/Control (T/C)
38 | LIGE [ENMD-1046] | 0.34
39 | L-Imid-GK (L[Imid]GK; reading uncertain; also: printed as L-Imid-GK) [ENMD-1063] | 0.94
40 | IG-Dap (Ile-Gly-[Dap]) [ENMD-1025, Dap=diamino proprionic acid] | 0.31
41 | LIGD [ENMD-1045] | 0.39
42 | LIGM [ENMD-1064] | 1.19
43 | L-Sta-K (Leu-[Sta]-Lys) [ENMD-1056] | 1.35
44 | IGR [ENMD-1023] | 0.23
45 | LIGR [ENMD-1022] | 0.26
46 | IG-dK (Ile-Gly-[dK]) [ENMD-1087] | 0.33
47 | LIGT [ENMD-1050] | 0.70
48 | L-Imid-K (Leu-[Imid]-Lys; reading uncertain; also: printed as L-Imid-K) [ENMD-1062] | 0.94
49 | LIGQ [ENMD-1048] | 0.59

Source: patent publication US20060063930A1, “Compositions and methods comprising proteinase activated receptor antagonists” (priority 2004, published 2006)
